Assay results taken from patent publication US20100160556A1, “GLP-1 Fusion Peptides Conjugated to Polymer(s), Their Production and Use” (priority 2007, published 2010).
Ends that are not written are not given here.

Legend:
[1] = tested on: type II diabetic mice (C57BL/Ks-Lepr db/db); assay: In vivo bioactivity in type II diabetic mice; details: 5 μg peptide s.c. twice a day, day 2, 4, 7, 10
Protocol: 11-week-old type II diabetic mice (C57BL/Ks-Lepr^db/db, Harlan) were treated with 5 μg peptide by subcutaneous injection twice a day at 9 a.m. and 5 p.m. (n=5 per group). Blood glucose was measured before (day 0) and after treatment with GLP^CM peptides (Day 2, 4, 7, 10) at 10 a.m. after an overnight fastening period. Data were presented in relation to blood glucose levels measured at day 0.
Best results were obtained with recombinant SEQ ID NO:6 (CM1) and synthetic SEQ ID NO:8 (CM3). In FIG. 9 (y-axis) the relative effect of the treatment is shown. Blood glucose at day ═O was set to 1. Untreated animals undergo continuous increase in blood glucose level over time, whereas animals treated with inventive peptides display grosso modo a continuous decrease of the blood glucose level over time.

[2] = tested on: diabetic C57BL/KsJ@Rj-db (db/db) mice; assay: Dose-efficacy study in diabetic mice; format: in vivo
Protocol: A sixth group was treated with saline only. 7 animals were treated per group. Blood glucose was determined from tail bleeds directly before, 1 hour and 4 hours after injection.
The results are shown in dose-response curves according to FIG. 12 ([…] (GLP-1), FIG. 12B (CM1), FIG. 12C (CM3) and FIG. 12D (CM3-ANA01)). For every test substance a graph was prepared with the percentage difference of the blood glucose in relation to the start value for the different concentrations. […] Both models are sigmoidal fit models suitable for dose response evaluation. For every peptide the plasma glucose ED50 values (single s.c. dose in μg/mouse) have been determined from the percentage decrease of blood glucose.
The fall in plasma glucose and the corresponding significance levels are given for the time period 1 hour (@1 h) and 4 hours (@4 h) after peptide injection. Differences have been observed in the long-term efficacy of the peptides.

[3] = tested on: C57BL/KsJ@Rj-db (db/db) mice; assay: Long-term treatment of db/db mice; format: in vivo
Protocol: Peptides or vehicle will be given once daily (group A-D) between 2°°-3°° p m. subcutaneously in the skin fold of the back. The regimen was continued for 18 weeks. From week 12 to 18 treatment was done twice a day in 6 of 12 animals per group.
Various parameters of the mice were investigated, i.e. health status (1), body weight (2), food consumption (3), blood glucose (4), glucose tolerance test (5), insulin data (6), glycosylated hemoglobin (7), pathology (8), and restimulation of T cells (9). • Health status (1) was good in all groups, no side effects of the treatment have been seen. • Body weight (2) was lower in all treated groups after 18 weeks of treatment (FIG. 13). […] The mean values of 12 animals per group are plotted. […] The relative body weight increase of 12 animals per group after a treatment of 122 days is plotted. […] Non-fasted blood glucose level (1 hour after peptide injection) is shown in FIG. 15A, i.e. the effect of a treatment with saline (A), CM1 (B), CM3-ANA01 (C) or exendin (D) on the non-fasted blood glucose levels. Blood glucose was measured from a tail bleed 1 hour after s.c. injection of saline (A) or the peptides CM1 (B), CM3-ANA01 (C) or exendin (D) in a concentration of 24 nmol/kg. […] Blood glucose was measured from a tail bleed after a 12-hour overnight fast 18 hours after s.c. injection of the test substances. Fasted blood glucose level 18h after peptide injection is reduced in the CM1 and CM3-ANA01 group. • An i.p. glucose tolerance test (5) (IPGTT) was conducted after 8 weeks of treatment on mice of the groups A-D. The basal blood glucose value (0 min) of 12 hour fasted animals has been determined by tail bleed followed by an s.c. injection of the test substance and an i.p. injection of 20% glucose solution (1g glucose per kg). Blood glucose has been further on determined 15, 30, 45, 60, 90 and 120 minutes after glucose injection. […] The serum was analysed for insulin with the Insulin Mouse Ultrasensitive ELISA (Cat.# EIA-3440, DRG). […]

[4] = tested on: BALB/c mice; details: mouse, in vivo
Protocol: (§1) The trial was done in BALB/c mice receiving 5 repeated injections (70 μg peptide/dose, i.v.) over 22d (n=5).
(§2) Spleens of the treated and control mice were explanted, T-cells isolated and stimulated with increasing amounts of antigene. Proliferative recall response is measured.

[5] = tested on: BALB/c mice; assay: In vivo immunogenicity study; details: 5 repeated injections, 70 μg peptide/dose, i.v., over 22d
Protocol: as §1, §2

[6] = molecular target: T1, GLP-1 receptor (Homo sapiens, UniProt P43220); format: cell-based
T1 construct: expressed in transfected cells; host or cells: CHO cell line
Protocol: GLP-1 Bioassay cAMP Increase
The in vitro bioactivity was tested in a GLP-1 receptor transfected CHO cell line by determining the half maximum effective dose (ED50)

[7] = molecular target: T2, DPPIV (Homo sapiens, UniProt P27487); assay: In vitro plasma stability (kinetic test method), GLP-1 (active) ELISA; details: for remaining at 9 h, 1 μM: human, pH 7.8
Target sequence in this assay (P27487 whole entry): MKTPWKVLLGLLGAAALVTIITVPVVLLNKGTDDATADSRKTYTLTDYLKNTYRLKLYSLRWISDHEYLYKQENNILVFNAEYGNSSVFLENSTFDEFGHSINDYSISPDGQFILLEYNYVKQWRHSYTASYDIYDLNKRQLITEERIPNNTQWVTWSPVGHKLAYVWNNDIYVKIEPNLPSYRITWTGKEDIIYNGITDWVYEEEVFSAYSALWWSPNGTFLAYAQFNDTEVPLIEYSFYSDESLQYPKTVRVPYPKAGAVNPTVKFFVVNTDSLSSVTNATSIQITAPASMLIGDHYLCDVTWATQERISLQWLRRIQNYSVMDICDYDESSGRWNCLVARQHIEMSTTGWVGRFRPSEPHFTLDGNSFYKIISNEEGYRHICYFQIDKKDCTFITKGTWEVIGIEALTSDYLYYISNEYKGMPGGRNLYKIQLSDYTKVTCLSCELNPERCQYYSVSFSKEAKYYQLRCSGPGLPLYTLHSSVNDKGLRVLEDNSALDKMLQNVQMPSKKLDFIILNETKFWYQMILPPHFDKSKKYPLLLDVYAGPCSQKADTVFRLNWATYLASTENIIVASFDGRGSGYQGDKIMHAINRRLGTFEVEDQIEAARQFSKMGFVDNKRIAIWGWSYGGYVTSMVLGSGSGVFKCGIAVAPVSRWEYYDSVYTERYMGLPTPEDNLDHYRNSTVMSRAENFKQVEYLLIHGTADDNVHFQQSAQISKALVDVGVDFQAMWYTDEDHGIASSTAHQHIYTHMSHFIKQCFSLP
From the text: Results are from triplicates in at least two independent experiments.

[8] = molecular target: T2, DPPIV; assay: In vitro human plasma stability of GLP-1 CM peptides; details: 20 ng/ml, 37° C., 3 hours
Target sequence in this assay (P27487 39-766 limits assumed): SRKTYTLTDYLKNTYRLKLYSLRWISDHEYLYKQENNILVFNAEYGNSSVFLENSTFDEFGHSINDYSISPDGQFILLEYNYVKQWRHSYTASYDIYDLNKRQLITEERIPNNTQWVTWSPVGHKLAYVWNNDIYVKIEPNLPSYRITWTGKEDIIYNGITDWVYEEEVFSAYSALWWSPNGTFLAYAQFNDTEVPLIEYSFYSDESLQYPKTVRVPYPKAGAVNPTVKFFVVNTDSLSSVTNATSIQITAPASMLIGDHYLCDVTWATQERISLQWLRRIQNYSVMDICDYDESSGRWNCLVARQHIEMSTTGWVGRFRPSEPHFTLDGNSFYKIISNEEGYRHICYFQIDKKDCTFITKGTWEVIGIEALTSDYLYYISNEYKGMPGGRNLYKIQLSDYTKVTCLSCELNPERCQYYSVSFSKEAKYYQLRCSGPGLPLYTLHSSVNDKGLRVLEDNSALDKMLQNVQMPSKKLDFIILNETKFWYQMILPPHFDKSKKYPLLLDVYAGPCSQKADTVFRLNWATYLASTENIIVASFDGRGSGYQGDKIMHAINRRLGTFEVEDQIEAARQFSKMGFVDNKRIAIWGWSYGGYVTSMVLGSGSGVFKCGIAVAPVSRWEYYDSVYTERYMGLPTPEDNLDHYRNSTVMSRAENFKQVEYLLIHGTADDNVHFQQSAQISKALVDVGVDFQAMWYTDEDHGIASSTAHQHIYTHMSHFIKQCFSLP
From the text: Dipeptidylpeptidase activity of the plasma was inhibited by an DPP-IV inhibitor (#DPP4, Biotrend).

[9] = tested on: diabetic db/db mice; assay: In vivo bioactivity of PEGylated peptide in diabetic db/db mice

T1 sequence (P43220 24-463, species assumed): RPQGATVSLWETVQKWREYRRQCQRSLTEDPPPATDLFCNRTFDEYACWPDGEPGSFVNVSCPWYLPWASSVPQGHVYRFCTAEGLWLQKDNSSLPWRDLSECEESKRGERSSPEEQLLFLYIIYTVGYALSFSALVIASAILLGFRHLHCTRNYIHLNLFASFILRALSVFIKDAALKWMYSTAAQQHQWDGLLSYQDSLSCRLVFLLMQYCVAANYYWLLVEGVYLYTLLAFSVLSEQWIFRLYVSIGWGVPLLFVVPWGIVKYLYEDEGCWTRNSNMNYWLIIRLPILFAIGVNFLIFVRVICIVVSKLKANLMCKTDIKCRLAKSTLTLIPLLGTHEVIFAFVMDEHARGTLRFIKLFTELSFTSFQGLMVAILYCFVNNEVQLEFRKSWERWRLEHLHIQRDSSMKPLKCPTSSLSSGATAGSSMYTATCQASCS

For GLP-1(7-37)—IP2-RR-GLP1(7-37) [CM1], the “anti-hyperglycemia effect (blood glucose relative to day 0)” value [1] was “anti-hyperglycemia effect”, the “ED50 (plasma glucose)” value ([2]; single s.c. dose, 1 h measurements, percentage decrease of blood glucose) was 0.61 μg/mouse and the “fall in plasma glucose @1 h” value ([2]; single s.c. injection of 1.1-3.0 nmol peptide, versus control, 1 hour) was 50% ± 14%. For the same substance, the “fall in plasma glucose @4 h” value ([2]; single s.c. injection of 1.1-3.0 nmol peptide, versus control, 4 hours) was 0%, the food consumption ([3]; 24 nmol/kg s.c., 122 day treatment period, compared to the control) was “significantly lower” and the “fasted blood glucose level” value ([3]; 12-hour overnight fast, 18h after peptide injection) was “reduced”. The “non fasted blood glucose level compared to control” value ([3]; 1h after s.c. peptide injection, 24 nmol/kg) was 55%, the clinically relevant immunogenicity [4] was “absence of any clinically relevant immunogenicity” and the toxicity [5] was “no toxicity”.
“HAEGTFTSDVSSYLEGQAAKEFIAWLVKGRGAADFPEEVAIAEELG [CM3-ANA01]” was tested, and the “ED50 (half maximum effective dose), cAMP increase” value [6] was 159 µM, the “active GLP-1 as a % of the 0 h value after 9 h” value ([7]; 1 μM peptide, 10% human plasma, 37° C., 9 h) was 84% and the “in vitro plasma stability (comparison)” value ([7]; 10% human plasma, 37° C.) was “higher plasma stability than CM3”. It also gave a remaining at 9 h, 1 μM ([7]; 10% human plasma) of 84%.
In the case of “HAEGTFTSDVSSYLEGQAAKEFIAWLVKGRGRRDAAAAVAIAEELG [CM3-ANA03]”, the “in vitro plasma stability (comparison)” value ([7]; 10% human plasma, 37° C.) is reported as “strongly reduced stability compared to CM3”.
In the case of “HAEGTFTSDVSSYLEGQAAKEFIAWLVKGRGRRDFPEEVAIAEELG [CM3]”, the “ED50 (half maximum effective dose), cAMP increase” value [6] is reported as 187 µM, the “stability in human plasma in vitro” value [8] is reported as “significantly stabilized” and the remaining at 9 h, 1 μM ([7]; 10% human plasma) is reported as 63%.
In the case of “PEG-CM3-ANA08: CM3-ANA08 covalently conjugated to unbranched 40 kDa mPEG maleimido propionamide via thiol of the C-terminal cysteine (HAEGTFTSDVSSYLEGQAAKEFIAWLVKGRGRRDFPEEVAIAEELGC)”, the “ED50 relative to CM3 (lowered in vitro bioactivity)” value ([6]; GLP-1 receptor transfected CHO cell line) is reported as “approximately 5 times”, the signs of toxicity ([9]; mouse, in vivo) is reported as “No signs of toxicity” and the blood glucose decrease ([9]; treated versus non-treated group) is reported as “significant blood glucose decrease”. For the same substance, the “peptide detected in the GLP-1 active ELISA” value ([7]; 0 hours) was 19%.
